Tests used:
Aurora A = target: T1, Aurora A (Homo sapiens, UniProt O14965); test: Aurora A inhibition assay (Z-Lyte); assay type: biochemical
T1 construct: purchased Invitrogen PV3612
T1 sequence (O14965 1-403): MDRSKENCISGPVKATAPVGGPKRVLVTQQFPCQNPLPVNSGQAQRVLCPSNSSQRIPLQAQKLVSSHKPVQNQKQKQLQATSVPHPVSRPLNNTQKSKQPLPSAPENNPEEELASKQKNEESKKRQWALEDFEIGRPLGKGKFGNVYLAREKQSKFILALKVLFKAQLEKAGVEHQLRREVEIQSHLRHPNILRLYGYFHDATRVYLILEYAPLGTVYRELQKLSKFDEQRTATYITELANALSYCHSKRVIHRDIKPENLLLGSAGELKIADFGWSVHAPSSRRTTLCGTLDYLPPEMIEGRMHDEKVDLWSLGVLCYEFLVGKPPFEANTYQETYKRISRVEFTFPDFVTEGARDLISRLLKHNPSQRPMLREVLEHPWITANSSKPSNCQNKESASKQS
Method: Aurora A inhibition was determined using the Z-Lyte assay kit from Invitrogen. The assay was performed using the recommended manufacturer's instructions with 20 nM ATP and 12 nM Aurora A (Invitrogen cat #PV3612). The % inhibition values were determined according to the manufacturer's directions and IC50 values were obtained using a non-linear 4 point logistic curve fit (XLfit4, IDBS)

[1] = test system: A549 lung cancer cell line; test: Cell growth inhibition, Sulforhodamine B (SRB) assay; assay type: cell-based; conditions: Homo sapiens, A549, 120 h, read-out: Cell Line GI50 Range A549
Method: (§1) Aliquots (20 μl) from each concentration were overlaid to 80 μl of the pre-seeded cells in the 96-plates to make final concentrations of 10 nM to 50 μM. The cells were cultured for 5 days before the Sulforhodamine B (SRB) assay was performed to determine the compound's cell growth inhibition activity.
(§2) Sulforhodamine B (Sigma, Canada) is a water-soluble dye that binds to the basic amino acids of cellular proteins. Thus, colorimetric measurement of the bound dye provides an estimate of the total protein mass that is related to the cell number. The cells are fixed in situ by gently aspirating off the culture media and adding 50 μl ice cold 10% Trichloroacetic Acid (TCA) per well and incubated at 4° C. for 30-60 min. The plates are washed with water five times and allowed to air dry for 5 min. Addition of 50 μl 0.4% (w/v) SRB solution in 1% (v/v) acetic acid to each well and incubatation for […] at RT completes the staining reaction. Following staining, plates are washed four times with 1% acetic acid to remove unbound dye and then allowed to air dry for 5 min. […] Absorbance is read at 570 nm.
(§3) The percentage (%) of relative growth inhibition was calculated by comparing to DMSO-treated only cells (100%). GI50's were determined for compounds with cytotoxic activity. The GI50 was calculated using GraphPad PRISM software (GraphPad Software, Inc., USA).

[2] = test system: MCF-7 luminal breast cancer cell line; test: as above; assay type: cell-based; conditions: Homo sapiens, MCF7, 120 h, read-out: Cell Line GI50 Range MCF-7
Method: as §1, §2, §3

[3] = test system: SW620 colon cancer cell line; test: as above; assay type: cell-based; conditions: Homo sapiens, SW-620, 120 h, read-out: Cell Line GI50 Range SW620
Method: as §1, §2, §3

[4] = test system: human mammary epithelial primary cells (HMEC); test: as above; assay type: cell-based; conditions: 120 h, read-out: Cell Line GI50 Range HMEC
Method: as §1, §2, §3

Abl kinase = Abl kinase (Homo sapiens, UniProt P00519); test: Kinase selectivity assay (CEREP, HTRF); assay type: biochemical; conditions: read-out: % Inhibition at 10 μM Concentration
Chain of Abl kinase (P00519 whole entry): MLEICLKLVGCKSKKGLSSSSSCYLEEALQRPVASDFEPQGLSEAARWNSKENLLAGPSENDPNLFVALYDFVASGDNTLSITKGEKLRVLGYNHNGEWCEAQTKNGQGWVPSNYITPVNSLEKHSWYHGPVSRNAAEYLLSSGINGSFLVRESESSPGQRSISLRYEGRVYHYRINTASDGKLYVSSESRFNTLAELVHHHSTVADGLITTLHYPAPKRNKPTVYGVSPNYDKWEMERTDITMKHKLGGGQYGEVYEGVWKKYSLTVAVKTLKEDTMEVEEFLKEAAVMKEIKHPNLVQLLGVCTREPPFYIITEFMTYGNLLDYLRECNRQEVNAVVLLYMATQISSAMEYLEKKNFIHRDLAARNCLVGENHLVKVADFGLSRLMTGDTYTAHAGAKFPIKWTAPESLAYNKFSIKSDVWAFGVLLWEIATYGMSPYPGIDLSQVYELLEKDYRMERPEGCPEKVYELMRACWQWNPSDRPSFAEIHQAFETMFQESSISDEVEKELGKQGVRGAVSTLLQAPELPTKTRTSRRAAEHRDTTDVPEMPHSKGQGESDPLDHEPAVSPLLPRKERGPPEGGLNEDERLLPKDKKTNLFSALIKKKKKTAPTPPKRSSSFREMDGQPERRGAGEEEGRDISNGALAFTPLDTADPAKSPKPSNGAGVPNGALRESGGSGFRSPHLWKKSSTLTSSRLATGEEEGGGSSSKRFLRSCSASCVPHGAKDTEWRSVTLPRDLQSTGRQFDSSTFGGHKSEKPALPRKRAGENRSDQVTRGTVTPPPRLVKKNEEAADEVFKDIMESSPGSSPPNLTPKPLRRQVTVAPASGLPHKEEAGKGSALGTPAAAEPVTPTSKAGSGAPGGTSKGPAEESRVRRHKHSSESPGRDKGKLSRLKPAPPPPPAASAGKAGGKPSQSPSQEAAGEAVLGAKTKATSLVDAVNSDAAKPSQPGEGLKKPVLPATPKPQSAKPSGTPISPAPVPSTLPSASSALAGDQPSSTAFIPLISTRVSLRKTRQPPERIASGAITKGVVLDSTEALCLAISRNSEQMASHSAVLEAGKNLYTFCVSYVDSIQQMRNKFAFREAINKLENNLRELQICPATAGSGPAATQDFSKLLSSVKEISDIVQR
Method: (§4) The inhibitory activity of selected compounds was evaluated against a panel of 45 different kinase enzymes by CEREP, France. The assays were performed using standard HTRF assay methods as documented by CEREP against the human orthologues of Abl kinase, Akt1/PKBa, AMPKa, BMX kinase (Etk), Brk, CaMK2a, CaMK4, CDC2/CDK1 (cycB), CHK1, CHK2, c-Met kinase, CSK, EphB4 kinase, ERK1, ERK2 (P42mapk), FGFR2 kinase, FGFR4 kinase, FLT-1 kinase (VEGFR1), FLT-3 kinase, Fyn kinase, IGF1R kinase, IRK (InsR), JNK 2, KDR kinase (VEGFR2), Lck kinase, Lyn kinase, MAPKAPK2, MEK1/MAP2K1, p38a kinase, p38d kinase, p38g kinase, PDGFRb kinase, PDK1, PKA, PKCa, PKCb1, PKCb2, PKCg, Ret kinase, ROCK2, RSK2, Src kinase, Syk, and TRKA. The % Inhibition was determined by the formula; % Inhibition=100×(1−(experimental value−background value)/(high activity control−background value)).

Akt1/PKBalpha = Akt1/PKBalpha (Homo sapiens, UniProt P31749); test: Kinase selectivity assay (CEREP, HTRF); assay type: biochemical; conditions: read-out: % Inhibition at 10 μM Concentration
Chain of Akt1/PKBalpha (P31749 whole entry): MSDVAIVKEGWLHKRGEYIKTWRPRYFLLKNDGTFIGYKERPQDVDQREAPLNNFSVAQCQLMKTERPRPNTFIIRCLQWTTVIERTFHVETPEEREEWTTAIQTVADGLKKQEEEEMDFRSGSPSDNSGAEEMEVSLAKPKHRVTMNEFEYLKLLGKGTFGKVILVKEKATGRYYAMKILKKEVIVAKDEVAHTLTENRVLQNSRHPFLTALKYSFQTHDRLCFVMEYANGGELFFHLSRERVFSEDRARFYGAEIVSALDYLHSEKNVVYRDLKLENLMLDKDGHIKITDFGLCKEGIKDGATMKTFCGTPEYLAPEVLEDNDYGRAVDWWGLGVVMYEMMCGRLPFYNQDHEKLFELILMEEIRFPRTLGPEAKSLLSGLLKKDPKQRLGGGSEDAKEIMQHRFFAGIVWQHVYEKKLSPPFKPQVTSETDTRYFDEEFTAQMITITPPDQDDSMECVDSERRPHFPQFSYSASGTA
Method: as §4

BMX (Etk) = BMX (Etk) (Homo sapiens, UniProt P51813); test: Kinase selectivity assay (CEREP, HTRF); assay type: biochemical; conditions: read-out: % Inhibition at 10 μM Concentration
Chain of BMX (Etk) (P51813 whole entry): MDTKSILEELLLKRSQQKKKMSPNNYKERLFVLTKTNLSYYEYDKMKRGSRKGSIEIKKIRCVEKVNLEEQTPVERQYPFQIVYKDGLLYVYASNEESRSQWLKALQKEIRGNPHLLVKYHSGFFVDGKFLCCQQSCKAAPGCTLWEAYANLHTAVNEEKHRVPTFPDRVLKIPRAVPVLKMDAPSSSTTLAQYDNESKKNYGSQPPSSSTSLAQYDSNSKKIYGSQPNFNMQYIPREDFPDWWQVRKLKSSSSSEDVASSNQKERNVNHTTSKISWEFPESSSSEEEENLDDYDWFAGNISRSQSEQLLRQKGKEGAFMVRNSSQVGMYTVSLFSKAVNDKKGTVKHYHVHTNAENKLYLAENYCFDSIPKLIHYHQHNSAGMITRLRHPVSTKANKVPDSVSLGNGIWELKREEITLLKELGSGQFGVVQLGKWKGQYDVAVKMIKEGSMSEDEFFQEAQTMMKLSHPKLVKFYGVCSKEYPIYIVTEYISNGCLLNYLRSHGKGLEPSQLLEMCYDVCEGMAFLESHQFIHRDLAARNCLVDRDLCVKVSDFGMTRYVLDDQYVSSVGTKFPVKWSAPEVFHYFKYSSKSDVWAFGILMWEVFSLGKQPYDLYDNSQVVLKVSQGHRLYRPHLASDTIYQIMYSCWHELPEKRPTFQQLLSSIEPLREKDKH
Method: as §4

Brk = Brk (Homo sapiens, UniProt Q13882); test: Kinase selectivity assay (CEREP, HTRF); assay type: biochemical; conditions: read-out: % Inhibition at 10 μM Concentration
Chain of Brk (Q13882 whole entry): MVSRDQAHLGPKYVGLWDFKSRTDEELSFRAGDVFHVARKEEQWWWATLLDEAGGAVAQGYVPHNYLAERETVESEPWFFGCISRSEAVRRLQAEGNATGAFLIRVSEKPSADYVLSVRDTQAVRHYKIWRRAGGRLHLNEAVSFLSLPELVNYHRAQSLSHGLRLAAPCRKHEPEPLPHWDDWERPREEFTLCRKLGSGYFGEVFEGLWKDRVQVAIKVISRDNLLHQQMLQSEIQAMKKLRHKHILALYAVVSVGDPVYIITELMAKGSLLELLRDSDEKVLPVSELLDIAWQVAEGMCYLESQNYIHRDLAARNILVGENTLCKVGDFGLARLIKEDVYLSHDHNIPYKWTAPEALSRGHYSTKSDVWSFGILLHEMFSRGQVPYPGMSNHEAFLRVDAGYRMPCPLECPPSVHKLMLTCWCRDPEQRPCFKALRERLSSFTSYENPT
Method: as §4

CHK1 = CHK1 (Homo sapiens, UniProt O14757); test: Kinase selectivity assay (CEREP, HTRF); assay type: biochemical; conditions: read-out: % Inhibition at 10 μM Concentration
Chain of CHK1 (O14757 whole entry): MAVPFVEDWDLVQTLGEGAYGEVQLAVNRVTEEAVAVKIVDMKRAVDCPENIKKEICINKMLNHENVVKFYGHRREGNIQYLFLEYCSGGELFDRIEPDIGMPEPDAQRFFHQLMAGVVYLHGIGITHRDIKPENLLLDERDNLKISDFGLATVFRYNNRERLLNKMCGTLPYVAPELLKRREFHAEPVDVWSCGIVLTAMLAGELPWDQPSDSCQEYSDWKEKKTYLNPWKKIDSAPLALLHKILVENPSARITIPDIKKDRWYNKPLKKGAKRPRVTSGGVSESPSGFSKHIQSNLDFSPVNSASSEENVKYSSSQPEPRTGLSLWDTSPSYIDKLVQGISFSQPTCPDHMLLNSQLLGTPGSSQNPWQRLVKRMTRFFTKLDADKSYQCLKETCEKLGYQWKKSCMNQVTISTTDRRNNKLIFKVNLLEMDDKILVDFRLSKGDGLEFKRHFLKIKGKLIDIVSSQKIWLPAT
Method: as §4

CaMK4 = CaMK4 (Homo sapiens, UniProt Q16566); test: Kinase selectivity assay (CEREP, HTRF); assay type: biochemical; conditions: read-out: % Inhibition at 10 μM Concentration
Method: as §4

ERK (P42mapk) = ERK (P42mapk) (Homo sapiens, UniProt P28482); test: Kinase selectivity assay (CEREP, HTRF); assay type: biochemical; conditions: read-out: % Inhibition at 10 μM Concentration
Method: as §4

ERK1 = ERK1 (Homo sapiens, UniProt P27361); test: Kinase selectivity assay (CEREP, HTRF); assay type: biochemical; conditions: read-out: % Inhibition at 10 μM Concentration
Method: as §4

FGFR4 = FGFR4 (Homo sapiens, UniProt P22455); test: Kinase selectivity assay (CEREP, HTRF); assay type: biochemical; conditions: read-out: % Inhibition at 10 μM Concentration
Chain of FGFR4 (P22455 22-802): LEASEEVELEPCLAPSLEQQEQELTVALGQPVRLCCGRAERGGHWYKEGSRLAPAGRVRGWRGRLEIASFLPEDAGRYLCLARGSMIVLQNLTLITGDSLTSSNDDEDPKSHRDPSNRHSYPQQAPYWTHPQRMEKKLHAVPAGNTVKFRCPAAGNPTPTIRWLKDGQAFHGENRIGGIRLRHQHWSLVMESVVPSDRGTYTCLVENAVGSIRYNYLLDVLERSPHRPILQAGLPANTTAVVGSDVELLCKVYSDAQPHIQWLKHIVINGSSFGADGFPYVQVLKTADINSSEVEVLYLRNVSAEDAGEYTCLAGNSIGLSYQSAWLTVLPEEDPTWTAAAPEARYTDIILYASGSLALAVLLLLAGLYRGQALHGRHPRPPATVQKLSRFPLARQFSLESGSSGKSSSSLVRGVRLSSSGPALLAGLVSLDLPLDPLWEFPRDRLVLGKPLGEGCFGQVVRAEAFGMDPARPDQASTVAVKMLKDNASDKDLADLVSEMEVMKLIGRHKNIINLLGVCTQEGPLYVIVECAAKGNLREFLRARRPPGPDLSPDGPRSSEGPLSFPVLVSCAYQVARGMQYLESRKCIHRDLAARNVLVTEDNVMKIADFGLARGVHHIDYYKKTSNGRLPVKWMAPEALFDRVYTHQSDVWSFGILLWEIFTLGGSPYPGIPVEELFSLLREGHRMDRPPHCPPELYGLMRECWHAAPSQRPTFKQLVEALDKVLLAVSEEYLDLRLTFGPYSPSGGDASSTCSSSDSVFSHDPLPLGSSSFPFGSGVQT
Method: as §4

Lyn = Lyn (Homo sapiens, UniProt P07948); test: Kinase selectivity assay (CEREP, HTRF); assay type: biochemical; conditions: read-out: % Inhibition at 10 μM Concentration
Chain of Lyn (P07948 whole entry): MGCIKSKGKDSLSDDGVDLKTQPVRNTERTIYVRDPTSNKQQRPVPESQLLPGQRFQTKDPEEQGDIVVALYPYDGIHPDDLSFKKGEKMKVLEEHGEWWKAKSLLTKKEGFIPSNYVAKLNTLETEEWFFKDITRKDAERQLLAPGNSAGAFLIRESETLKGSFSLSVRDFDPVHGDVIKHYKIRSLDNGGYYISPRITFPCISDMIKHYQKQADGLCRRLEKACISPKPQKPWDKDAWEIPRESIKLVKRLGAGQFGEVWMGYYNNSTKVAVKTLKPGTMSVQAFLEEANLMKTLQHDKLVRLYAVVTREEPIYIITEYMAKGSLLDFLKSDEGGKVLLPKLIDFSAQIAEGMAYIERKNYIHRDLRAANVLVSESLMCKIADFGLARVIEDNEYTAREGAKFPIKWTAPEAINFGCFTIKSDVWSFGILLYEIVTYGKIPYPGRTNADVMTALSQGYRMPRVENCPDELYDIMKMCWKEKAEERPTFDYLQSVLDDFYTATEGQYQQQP
Method: as §4

MAPKAPK2 = MAPKAPK2 (Homo sapiens, UniProt P49137); test: Kinase selectivity assay (CEREP, HTRF); assay type: biochemical; conditions: read-out: % Inhibition at 10 μM Concentration
Chain of MAPKAPK2 (P49137 whole entry): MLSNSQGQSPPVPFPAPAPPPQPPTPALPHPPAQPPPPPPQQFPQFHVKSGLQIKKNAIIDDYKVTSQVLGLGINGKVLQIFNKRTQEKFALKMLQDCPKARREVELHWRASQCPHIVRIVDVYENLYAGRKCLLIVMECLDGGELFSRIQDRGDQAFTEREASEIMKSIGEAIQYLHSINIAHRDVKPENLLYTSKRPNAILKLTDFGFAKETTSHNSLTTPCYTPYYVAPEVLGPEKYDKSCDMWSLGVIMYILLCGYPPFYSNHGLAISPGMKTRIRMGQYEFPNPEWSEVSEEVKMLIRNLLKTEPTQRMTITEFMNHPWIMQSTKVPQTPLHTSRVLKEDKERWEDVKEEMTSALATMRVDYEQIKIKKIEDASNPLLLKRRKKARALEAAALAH
Method: as §4

PDGFRbeta = PDGFRbeta (Homo sapiens, UniProt P09619); test: Kinase selectivity assay (CEREP, HTRF); assay type: biochemical; conditions: read-out: % Inhibition at 10 μM Concentration
Method: as §4

PDK1 = PDK1 (Homo sapiens, UniProt O15530); test: Kinase selectivity assay (CEREP, HTRF); assay type: biochemical; conditions: read-out: % Inhibition at 10 μM Concentration
Method: as §4

| SMILES | inhibition at 10 µM (Aurora A; dose of 10 μM, read-out: Aurora A relative inhibition percentage) [%] | GI50 [1] [µM] | GI50 [2] [µM] | GI50 [3] [µM] | GI50 [4] [µM] | inhibition at 10 µM (Abl kinase) [%] | inhibition at 10 µM (Akt1/PKBalpha) [%] | inhibition at 10 µM (BMX (Etk)) [%] | inhibition at 10 µM (Brk) [%] | inhibition at 10 µM (CHK1) [%] | inhibition at 10 µM (CaMK4) [%] | inhibition at 10 µM (ERK (P42mapk)) [%] | inhibition at 10 µM (ERK1) [%] | inhibition at 10 µM (FGFR4) [%] | inhibition at 10 µM (Lyn) [%] | inhibition at 10 µM (MAPKAPK2) [%] | inhibition at 10 µM (PDGFRbeta) [%] | inhibition at 10 µM (PDK1) [%] | IC50 (Aurora A; read-out: IC50 Ranges Aurora A) [µM] |
| --- | --- | --- | --- | --- | --- | --- | --- | --- | --- | --- | --- | --- | --- | --- | --- | --- | --- | --- | --- |
| COc1ccc2c(c1)[C@@]1(C[C@@H]1c1ccc3c(-c4ccc(N5CCN(C)CC5)nc4)n[nH]c3c1)C(=O)N2 (racemic) [Compound 2] | < 50 | < 5 | < 5 | < 5 | 20 to 50 |  |  |  |  |  |  |  |  |  |  |  |  |  |  |
| CN(C)Cc1ccc(/C=C/c2n[nH]c3cc([C@H]4C[C@@]45C(=O)Nc4ccccc45)ccc23)cc1 (racemic) [Compound 35] |  | < 5 | < 5 | < 5 | 5 to 20 | 100 | -4 | 39 | 53 | 43 | -4 | 2 | 1 | -12 | 86 | 2 | 59 | 2 |  |
| COc1ccc2c(c1)/C(=C\c1ccc3c(/C=C/c4ccc(N5CCN(C)CC5)nc4)n[nH]c3c1)C(=O)N2 [Compound 3] |  |  |  |  |  | 23 | -5 | 0 | -2 | 0 | 6 | 15 | 2 | -30 | -2 | 6 | 14 | 5 | < 5 |
